We go through three molecules from patent US7582662B2, “Body weight gain inhibitor” (Takeda Pharmaceutical Company Limited, priority 2002, dated 2009).

Molecules are shown by their SMILES. Where a name gives a salt, the structure may show the parent alone.

Data set [1] is described as follows: Body weight gain of obese mouse (compound A-mixed feed, 4 days). Format: in vivo, male KKA^y mice. To be noted: KKA^y mice, 10 week old, 0.005% compound A-mixed feed (about 6.5 mg/kg/day), mean±standard error, control 1.2±0.2 g, p<0.05. As for the experimental part:
Effect of 2-ethoxy-1-[[2′-(2,5-dihydro-5-oxo-1,2,4-oxadiazole-3-yl)biphenyl-4-yl]methyl]benzimidazole-7-carboxylic acid (Compound A) on Body Weight Gain of Obese Mouse
As the obese mouse, male KKA^y mice (10 week old) were used. The mice were grouped by measuring the body weight, and feeding of a CE-2 powdered feed (control)(n=7) and a 0.005% compound A-mixed feed (n=7) was started. At 4 days from feeding, the body weight was measured and the amount of the body weight gain was calculated. As the normal control, C57BL mice were used, and after feeding a CE-2 powdered feed for 4 days, whether the male KKA^y mice of the same age became obese was also examined.
The results are shown in mean±standard error. For the analysis of significance, Student's t-test was used. • 2) Results

Data set [2] is described as follows: Body weight gain induced by PPARγ agonist-like substance (pioglitazone) in obesity rats. It is filed as in vivo, male Wistar fatty rats. To be noted: Wistar fatty rats, 7 days. The procedure:
Effect of Compound a on Body Weight Gain Induced by PPARγ Agonist-Like Substance (Pioglitazone) As the obesity rats, male Wistar fatty rats (16 week old) were used. The body weights were measured and the rats were grouped, after which a suspension of a drug in 0.5% methylcellulose solution was repeatedly and forcibly administered orally once a day for 7 consecutive days. After 24 hr from the final administration, the body weight was measured and the body weight gain was calculated. […] For the analysis of significance, Student's t-test was used. • 2) Results

The conditions of data set [3]: patients with type II diabetes; Diabetes, 47, suppl. 1, A18, No. 69, 1998; cited from earlier work.

Turning to `CCOc1nc2cccc(C(=O)O)c2n1Cc1ccc(-c2ccccc2-c2nc(=O)o[nH]2)cc1` [compound A, 2-ethoxy-1-[[2′-(2,5-dihydro-5-oxo-1,2,4-oxadiazol-3-yl)biphenyl-4-yl]methyl]benzimidazole-7-carboxylic acid], the “body weight gain during the test period” value in data set [1] amounted to 0.1 ± 0.4 g. Besides, the “amount of body weight gain” value in data set [2] (compound A 1 mg/kg/day p.o. together with PPARγ agonist-like substance (pioglitazone hydrochloride) 0.5 mg/kg/day p.o., p<0.05 vs single administration group) amounted to 19.3 ± 2.5 g.

Take `CCc1ccc(CCOc2ccc(CC3SC(=O)NC3=O)cc2)nc1` (stereo not shown) [pioglitazone hydrochloride]: in data set [2] (0.5 mg/kg/day p.o. alone, mean±standard error, control 24.4±2.4 g, p<0.05), the “amount of body weight gain” value came to 30.8 ± 1.8 g.

Turning to `Cc1c(C)c2c(c(C)c1O)CCC(C)(COc1ccc(CC3SC(=O)NC3=O)cc1)O2` (stereo not shown) [troglitazone], in data set [3], the “effect on body weight” value is reported as “body weight gaining action”.
